Assay [1] relates to [Candida] auris. The assay can be described thus: Antifungal activity against fluconazole resistant Candida auris 888 assessed as inhibition of fungal growth incubated for 48 hrs by CLSI protocol based microbroth dilution method. The class given is functional. Particulars: Candidozyma auris. In general terms: In broth dilution the organism is exposed to a series of concentrations in liquid medium.

In a further assay the test system is Nakaseomyces glabratus. Description: Antifungal activity against Candida glabrata 537 assessed as inhibition of fungal growth incubated for 48 hrs by CLSI protocol based microbroth dilution method. The assay is classed as functional.
Assay [2] relates to Candida albicans. Description: Antifungal activity against Candida albicans SC5314 assessed as inhibition of fungal growth incubated for 24 hrs by CLSI protocol based microbroth dilution method. The class given is functional.
Assay [3] relates to [Candida] auris. The assay can be described thus: Antifungal activity against fluconazole resistant Candida auris 789 assessed as inhibition of fungal growth incubated for 48 hrs by CLSI protocol based microbroth dilution method. The assay is classed as functional. Particulars: Candidozyma auris.
The test system of assay [4] is Cryptococcus neoformans. Description: Antifungal activity against Cryptococcus neoformans H99 assessed as inhibition of fungal growth incubated for 72 hrs by CLSI protocol based microbroth dilution method. The assay is classed as functional.
Assay [5] has as its system [Candida] auris. The assay can be described thus: Antifungal activity against fluconazole resistant Candida auris 791 assessed as inhibition of fungal growth incubated for 48 hrs by CLSI protocol based microbroth dilution method. The class given is functional. To be noted: Candidozyma auris.
The subject of assay [6] is Candida tropicalis. The assay can be described thus: Antifungal activity against Candida tropicalis 2718 assessed as inhibition of fungal growth at 32 ug/ml incubated for 24 hrs by plate reader analysis. To be noted: dose 32.0 µg/ml. The assay is classed as functional, organism-based.
The subject of assay [7] is Candida tropicalis. Description: Antifungal activity against Candida tropicalis 2718 assessed as inhibition of fungal growth incubated for 24 hrs by CLSI protocol based microbroth dilution method. The assay is classed as functional.
The subject of assay [8] is [Candida] auris. Description: Antifungal activity against fluconazole resistant Candida auris D12 assessed as inhibition of fungal growth incubated for 48 hrs by CLSI protocol based microbroth dilution method. The assay is classed as functional. To be noted: Candidozyma auris.
The next assay has as its system Aspergillus fumigatus. The assay can be described thus: Antifungal activity against Aspergillus fumigatus 7544 assessed as inhibition of fungal growth incubated for 48 hrs by CLSI protocol based microbroth dilution method. The assay is classed as functional.
Assay [9] concerns [Candida] auris. Description: Antifungal activity against fluconazole resistant Candida auris BS12372 assessed as inhibition of fungal growth incubated for 48 hrs by CLSI protocol based microbroth dilution method. The assay is classed as functional. To be noted: Candidozyma auris.
The test system of assay [10] is [Candida] auris. Description: Antifungal activity against fluconazole resistant Candida auris 887 assessed as inhibition of fungal growth incubated for 48 hrs by CLSI protocol based microbroth dilution method. The assay is classed as functional. Particulars: Candidozyma auris.
The next assay deals with Candida parapsilosis. The assay can be described thus: Antifungal activity against Candida parapsilosis 22019 assessed as inhibition of fungal growth incubated for 24 hrs by CLSI protocol based microbroth dilution method. The assay is classed as functional. To be noted: Lodderomyces parapsilosis.
For a further assay, the system named is Pichia kudriavzevii. Description: Antifungal activity against Candida krusei 4946 assessed as inhibition of fungal growth incubated for 24 hrs by CLSI protocol based microbroth dilution method. The assay is classed as functional.
The test system of assay [11] is Cryptococcus neoformans. Description: Antifungal activity against Cryptococcus neoformans H99 assessed as inhibition of fungal growth at 0.125 ug/ml incubated for 48 hrs by plate reader analysis. The assay is classed as functional, organism-based. To be noted: dose 0.125 µg/ml.
In assay [12] the test system is Candida albicans. The assay can be described thus: Antifungal activity against Candida albicans SC5314 assessed as inhibition of fungal growth at 0.0156 ug/ml incubated for 24 hrs by plate reader analysis. Particulars: dose 0.0156 µg/ml. The assay is classed as functional, organism-based.
Another assay deals with Cytochrome P450 2C19 (Homo sapiens, UniProt P33261).
Sequence of Cytochrome P450 2C19 (P33261 whole entry): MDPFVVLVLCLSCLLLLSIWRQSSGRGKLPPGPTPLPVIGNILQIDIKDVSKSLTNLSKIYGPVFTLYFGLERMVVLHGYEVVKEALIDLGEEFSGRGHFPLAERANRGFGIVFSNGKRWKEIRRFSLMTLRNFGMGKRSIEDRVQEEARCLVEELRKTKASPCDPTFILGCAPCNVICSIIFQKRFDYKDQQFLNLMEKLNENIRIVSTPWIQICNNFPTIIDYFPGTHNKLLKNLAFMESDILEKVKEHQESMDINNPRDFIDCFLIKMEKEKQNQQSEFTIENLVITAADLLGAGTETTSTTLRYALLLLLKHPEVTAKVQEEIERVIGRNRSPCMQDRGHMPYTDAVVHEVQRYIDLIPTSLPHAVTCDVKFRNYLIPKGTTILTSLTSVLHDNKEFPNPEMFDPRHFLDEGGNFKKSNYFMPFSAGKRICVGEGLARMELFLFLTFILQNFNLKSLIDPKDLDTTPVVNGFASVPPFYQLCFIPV
The subject of assay [13] is Candida albicans. The assay can be described thus: Antifungal activity against Candida albicans SC5314 infected in ICR mouse model assessed as median survival time at 1 mg/kg/day, po pre-infected with fungi for 2 hrs followed by compound administration and measured after 48 hrs (reference value: 3.5 days). The assay is classed as functional.
Assay [14] deals with Candida albicans. The assay can be described thus: Antifungal activity against Candida albicans SC5314 infected in ICR mouse model assessed as fungal burden in kidney at 1 mg/kg/day, po pre-infected with fungi for 2 hrs followed by compound administration and measured after 48 hrs (reference value: 3.89 Log10CFU/g). The class given is functional.
Another assay concerns the target T1, Cytochrome P450 1A2 (Homo sapiens, UniProt P05177).
T1 sequence (P05177 whole entry): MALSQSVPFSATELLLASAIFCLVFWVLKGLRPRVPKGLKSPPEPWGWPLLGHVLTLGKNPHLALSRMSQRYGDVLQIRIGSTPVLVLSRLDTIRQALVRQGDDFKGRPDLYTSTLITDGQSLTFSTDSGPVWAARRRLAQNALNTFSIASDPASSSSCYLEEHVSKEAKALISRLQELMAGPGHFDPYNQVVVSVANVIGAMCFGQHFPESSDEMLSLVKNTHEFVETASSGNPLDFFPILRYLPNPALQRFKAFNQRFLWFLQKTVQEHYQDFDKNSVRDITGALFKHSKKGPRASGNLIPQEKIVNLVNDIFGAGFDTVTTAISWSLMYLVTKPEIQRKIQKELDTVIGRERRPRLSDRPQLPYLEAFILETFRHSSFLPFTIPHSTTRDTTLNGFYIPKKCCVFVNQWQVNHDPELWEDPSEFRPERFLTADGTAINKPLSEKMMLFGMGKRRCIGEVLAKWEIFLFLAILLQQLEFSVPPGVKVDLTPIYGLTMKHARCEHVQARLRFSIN
Description: Inhibition of CYP1A2 in human liver microsomes using phenacetin as substrate in presence of NADPH by LC-MS/MS analysis. Background: Liver microsomes are vesicles of endoplasmic reticulum, rich in cytochrome P450 enzymes.

Another assay has as its target Cytochrome P450 2D6 (Homo sapiens, UniProt P10635).
In another assay the target is Cytochrome P450 3A4 (Homo sapiens, UniProt P08684).
Sequence of Cytochrome P450 3A4 (P08684 whole entry): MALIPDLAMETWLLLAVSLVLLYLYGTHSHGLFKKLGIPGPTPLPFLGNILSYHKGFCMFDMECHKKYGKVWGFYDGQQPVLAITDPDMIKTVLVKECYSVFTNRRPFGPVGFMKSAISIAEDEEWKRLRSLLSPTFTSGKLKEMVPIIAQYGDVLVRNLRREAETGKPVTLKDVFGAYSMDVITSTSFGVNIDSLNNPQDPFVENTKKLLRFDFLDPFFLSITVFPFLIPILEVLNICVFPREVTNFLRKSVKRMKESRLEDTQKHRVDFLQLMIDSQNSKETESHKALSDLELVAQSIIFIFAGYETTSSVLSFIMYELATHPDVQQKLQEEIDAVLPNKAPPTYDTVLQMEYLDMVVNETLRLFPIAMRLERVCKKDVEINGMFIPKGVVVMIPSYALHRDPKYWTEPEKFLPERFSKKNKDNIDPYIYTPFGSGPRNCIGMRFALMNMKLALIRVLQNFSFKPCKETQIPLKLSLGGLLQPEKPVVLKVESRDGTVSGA
The target of a further assay is Cytochrome P450 2C9 (Homo sapiens, UniProt P11712).
Sequence of Cytochrome P450 2C9 (P11712 whole entry): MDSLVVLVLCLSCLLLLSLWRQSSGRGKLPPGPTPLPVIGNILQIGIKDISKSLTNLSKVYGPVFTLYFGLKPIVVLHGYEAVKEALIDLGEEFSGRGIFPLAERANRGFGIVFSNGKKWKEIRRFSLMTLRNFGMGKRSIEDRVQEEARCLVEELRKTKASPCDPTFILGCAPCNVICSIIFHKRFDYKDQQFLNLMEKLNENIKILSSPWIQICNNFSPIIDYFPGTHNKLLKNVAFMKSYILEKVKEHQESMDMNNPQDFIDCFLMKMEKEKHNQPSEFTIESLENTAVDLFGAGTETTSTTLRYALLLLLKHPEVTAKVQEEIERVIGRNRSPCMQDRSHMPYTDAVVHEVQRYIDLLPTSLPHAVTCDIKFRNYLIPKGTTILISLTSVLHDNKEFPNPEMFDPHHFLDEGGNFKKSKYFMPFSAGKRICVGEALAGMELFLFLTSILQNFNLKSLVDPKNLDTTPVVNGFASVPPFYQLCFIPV

In brackets after ≈: the same amount, converted by molar mass. Activity calls are given as the source filed them. The rule behind the calls is not given here.

Sequence of Cytochrome P450 2D6 (P10635 whole entry): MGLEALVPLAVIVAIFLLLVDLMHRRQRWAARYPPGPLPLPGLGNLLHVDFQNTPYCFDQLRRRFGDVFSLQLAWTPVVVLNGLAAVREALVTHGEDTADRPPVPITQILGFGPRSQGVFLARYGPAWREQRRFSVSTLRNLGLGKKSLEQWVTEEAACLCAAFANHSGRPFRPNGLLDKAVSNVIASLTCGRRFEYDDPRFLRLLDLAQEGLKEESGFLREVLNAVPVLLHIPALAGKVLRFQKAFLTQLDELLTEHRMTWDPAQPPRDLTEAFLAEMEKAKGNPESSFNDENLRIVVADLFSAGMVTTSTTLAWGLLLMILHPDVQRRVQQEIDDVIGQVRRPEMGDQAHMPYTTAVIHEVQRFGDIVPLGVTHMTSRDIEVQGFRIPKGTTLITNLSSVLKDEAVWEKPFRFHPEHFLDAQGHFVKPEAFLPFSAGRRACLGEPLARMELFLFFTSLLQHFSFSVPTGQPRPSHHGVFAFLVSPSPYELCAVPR

The term MIC50 denotes the lowest concentration that inhibits either 50% of growth or 50% of the strains tested, depending on the study. On to `C[C@@H](n1ncc2cc(Cl)ccc2c1=O)[C@](O)(Cn1cnnn1)c1ccc(F)cc1F`, for which the MIC50 in assay [Candida] auris [1] is 32 µg/mL (≈ 73.9 µM); in the assay with Nakaseomyces glabratus, below 0.008 µg/mL; with Candida albicans [2] it was below 0.008 µg/mL; in [Candida] auris [3] it was 16 µg/mL (≈ 37 µM); in the assay with Cryptococcus neoformans [4] it was 0.063 µg/mL (≈ 0.146 µM); in assay [Candida] auris [5], 32 µg/mL (≈ 73.9 µM). Also, the MIC50 was below 0.008 µg/mL in the assay with Candida tropicalis [7]; 8 µg/mL (≈ 18.5 µM) in assay [Candida] auris [8]; 8 µg/mL (≈ 18.5 µM) in the assay on Aspergillus fumigatus; 4 µg/mL (≈ 9.24 µM) in assay [Candida] auris [9]; 16 µg/mL (≈ 37 µM) in [Candida] auris [10]; 0.063 µg/mL (≈ 0.146 µM) in the assay on Candida parapsilosis. For the same molecule, the MIC50 with Pichia kudriavzevii came to 0.5 µg/mL (≈ 1.16 µM). In the assay with Candida tropicalis [6], the outcome was Active.
Regarding `C[C@@H](c1ncncc1F)[C@](O)(Cn1cncn1)c1ccc(F)cc1F` [VORICONAZOLE], the MIC50 in [Candida] auris [1] is 2 µg/mL (≈ 5.73 µM); in the assay with Nakaseomyces glabratus, below 0.008 µg/mL; with Candida albicans [2], below 0.008 µg/mL; in [Candida] auris [3], 2 µg/mL (≈ 5.73 µM); in the assay on Cryptococcus neoformans [4], 0.063 µg/mL (≈ 0.18 µM); in assay [Candida] auris [5] it was 4 µg/mL (≈ 11.5 µM). Also, the MIC50 with Candida tropicalis [7] was below 0.008 µg/mL; in [Candida] auris [8], 2 µg/mL (≈ 5.73 µM); with Aspergillus fumigatus, 0.25 µg/mL (≈ 0.716 µM); in [Candida] auris [9], 2 µg/mL (≈ 5.73 µM); in assay [Candida] auris [10] it was 2 µg/mL (≈ 5.73 µM); with Candida parapsilosis it was 0.016 µg/mL (≈ 0.0458 µM). The MIC50 in the assay on Pichia kudriavzevii is 0.063 µg/mL (≈ 0.18 µM).
Turning to `O[C@@](Cn1cnnn1)(c1ccc(F)cc1F)C(F)(F)c1ccc(-c2ccc(OCC(F)(F)F)cc2)cn1` [OTESECONAZOLE], the MIC50 is 8 µg/mL (≈ 15.2 µM) in assay [Candida] auris [1]; below 0.008 µg/mL in the assay on Nakaseomyces glabratus; below 0.008 µg/mL in the assay on Candida albicans [2]; 8 µg/mL (≈ 15.2 µM) in assay [Candida] auris [3]; below 0.008 µg/mL in the assay with Cryptococcus neoformans [4]; 8 µg/mL (≈ 15.2 µM) in assay [Candida] auris [5]. Also, the MIC50 with Candida tropicalis [7] was below 0.008 µg/mL; in assay [Candida] auris [8] it was 4 µg/mL (≈ 7.58 µM); in the assay on Aspergillus fumigatus, above 64 µg/mL; in assay [Candida] auris [9], 1 µg/mL (≈ 1.9 µM); in [Candida] auris [10], 4 µg/mL (≈ 7.58 µM); with Candida parapsilosis, below 0.008 µg/mL. For the same molecule, the MIC50 with Pichia kudriavzevii was 0.5 µg/mL (≈ 0.948 µM). Further, the result with Cryptococcus neoformans [11] and in the assay with Candida albicans [12] was Active.
What is called IC50 is the concentration at which inhibition is half-maximal. As for `C[C@@H](n1cnc2cc(Cl)ccc2c1=O)[C@](O)(Cn1cncn1)c1ccc(F)cc1F` [ALBACONAZOLE], the IC50 was 13 µM against Cytochrome P450 2C19; 60.3 µM on Cytochrome P450 1A2; 31.7 µM at Cytochrome P450 2D6; 0.04 µM at Cytochrome P450 3A4; 10.4 µM against Cytochrome P450 2C9. In addition, the MIC50 is 0.5 µg/mL (≈ 1.16 µM) in assay [Candida] auris [1]; below 0.008 µg/mL with Nakaseomyces glabratus; below 0.008 µg/mL in the assay on Candida albicans [2]; 0.5 µg/mL (≈ 1.16 µM) in assay [Candida] auris [3]; below 0.008 µg/mL with Cryptococcus neoformans [4]; 0.5 µg/mL (≈ 1.16 µM) in [Candida] auris [5]. Moreover, the MIC50 in the assay on Candida tropicalis [7] was below 0.008 µg/mL; in [Candida] auris [8] it was 0.5 µg/mL (≈ 1.16 µM); in the assay on Aspergillus fumigatus it was 0.25 µg/mL (≈ 0.579 µM); in assay [Candida] auris [9] it was 0.25 µg/mL (≈ 0.579 µM); in assay [Candida] auris [10] it was 0.5 µg/mL (≈ 1.16 µM); in the assay with Candida parapsilosis it was below 0.008 µg/mL. Further, the MIC50 with Pichia kudriavzevii is 0.125 µg/mL (≈ 0.289 µM). Further, the MST in the assay with Candida albicans [13] worked out at 3.5 days. In the assay with Candida albicans [14], the Activity is 3.54 log10CFU/g. In addition, the result in the assay with Candida tropicalis [6] and in the assay on Candida albicans [12] was Active.

Source of the values: ChEMBL document CHEMBL5543144, “Discovery of a Novel Potent Tetrazole Antifungal Candidate with High Selectivity and Broad Spectrum” (J Med Chem, 2024).
